Series [1] can be described thus: Test Example 1: presence of prodrug in mouse and absorbency, oral administration, plasma AUC. Format: in vivo, mice (Balb/cA, male). Conditions: for presence of prodrug in mouse (conversion into active compound): oral administration. How it is done: The dosage amounts of the compound of Comparative Example 1, a triethylamine salt of the compound of Example 1, the compound of Comparative Example 2 and the compound of Example 2 were set to be 50 mg/10 mL/kg, 62 mg/10 mL/kg (50 mg/10 mL/kg in terms of free compound), 3 mg/10 mL/kg, and 3.6 mg/10 mL/kg, respectively. Solutions for administration were prepared with a 0.5% aqueous solution of HPMC so as to satisfy the above dosage amounts. Note that a solution for administration of a triethylamine salt of the compound of Example 1 was prepared by adding 1 molar equivalent of triethylamine.
The dosage amounts of the compound of Comparative Example 3 and the compound of Example 5 were set to be 3 mg/10 mL/kg and 3.8 mg/10 mL/kg, respectively. Solutions thereof for administration were prepared with a 0.5% aqueous solution of HPMC so as to satisfy the above dosage amounts.
Note that, the “mg/10 mL/kg” means as follows: for example “50 mg/10 mL/kg” means that 50 mg of a test compound per body-weight (1 kg) of a mouse was dispersed or dissolved in a solution (10 mL) for administering a compound. The same applies hereinafter.
The solutions for administration prepared above were orally administered to mice (Balb/cA, male) not fasted each by use of an oral administration sonde.
The mice were anesthetized with isoflurane 0.5, 1, 2, 4 and 6 hours after administration and blood was taken from the facial vein by use of a specific needle (animal lancet) and a heparin-coated hematocrit tube.
The blood sampled was immediately centrifuged (13000 rpm, 2 minutes, 4° C.) to prepare the plasma samples. After proteins were removed from the plasma samples, the concentrations of the test compound in the plasma samples were measured by LC/MS/MS.
The value of “area under the curve” (AUC) of drug concentration in blood versus time was calculated using analysis software such as Phoenix (registered trademark) WinNonlin (registered trademark).
More specifically, the results of the compounds of Comparative Examples 1 and 2 and triethylamine salt of Example 1, and the compound of Example 2 are shown in Table 2; whereas, the results of the compounds of Comparative Example 3 and Example 5 are shown in Table 3. In Table 2 and Table 3, “Comparative Example 1”, “Comparative Example 2”, and “Comparative Example 3” represent the “compound (Br form) of Comparative Example 1”, the “compound (I form) of Comparative Example 2” and the “compound (Cl form) of Comparative Example 3”, respectively.

The nature of series [2]: Test Example 2: presence of prodrug in mouse and absorbency, caudal vein administration, plasma AUC. It counts as in vivo, mice (Balb/cA, male). Conditions: for presence of prodrug in mouse (conversion into active compound): caudal vein administration of disodium salts; for AUC(0-t): male, Balb/cA, caudal vein, physiological saline, mouse plasma, unchanged prodrug. How it is done: The dosage amounts of a disodium salt of the compound of Example 1, a disodium salt of the compound of Example 2, a disodium salt of the compound of Example 3, a disodium salt of the compound of Example 4 and a disodium salt of the compound of Example 5 were set to be 26 mg/5 mL/kg, 12 mg/5 mL/kg, 12 mg/5 mL/kg, 12 mg/5 mL/kg, and 11 mg/5 mL/kg, respectively. Solutions for administration were prepared by dissolving the compounds in physiological saline so as to satisfy the above dosage amounts, respectively. Note that solutions for administration of disodium salts of the compounds of Examples 1 to 4 were prepared by adding 2 molar equivalents of sodium hydroxide.
Mice (Balb/cA, male) not fasted were each immobilized on a specific fixed table, sterilized with ethanol for disinfection. Each of the solutions prepared above was administered through the caudal vein by use of a syringe and a needle.
Blood was taken from the facial vein, 0.25, 0.5, 1, 2, 4 and 6 hours after administration by use of a specific needle (animal lancet) and a heparin-coated hematocrit tube.
The blood sampled were immediately centrifuged (13000 rpm, 2 minutes, 4° C.) to prepare the plasma samples. After proteins were removed from the plasma samples, the concentrations of the test compound in the plasma samples were measured by LC/MS/MS.
The value of AUC was calculated using analysis software such as Phoenix (registered trademark), WinNonlin (registered trademark).
The AUC (AUC 0-6 hr) values obtained in the time period of 0 to 6 hours after administration of sodium salts of the compounds of Example 1 to 4 are shown in Table 4; and the AUC (AUC 0-6 hr) values obtained in the time period of 0 to 6 hours after administration of a sodium salt of the compound of Example 5 are shown in Table 5. In Table 4 and Table 5, “Comparative Example 1”, “Comparative Example 2” and “Comparative Example 3” represent the “compound (Br form) of Comparative Example 1”, the “compound (I form) of Comparative Example 2”, and the “compound (Cl form) of Comparative Example 3”, respectively.

Series [3] has as its system human brain tumor cell line (U-87 MG). In words: Test Example 6: antitumor effect and toxicity in mouse, subcutaneous U-87 MG transplant. It counts as in vivo, BALB/cA Jcl-nu/nu mice. How it is done:
The day of grouping mice was determined Day 0.
TV (mm^3)=(major axis×minor axis^2)/2
RTV=(TV on evaluation date)/(TV on Day 0)
IR (%)=(1−(RTV of administration group on evaluation date)/(RTV of control group on evaluation date))×100

In series [4] the test system is human hematopoietic organ tumor cell line (MV-4-11). In words: Test Example 7: antitumor effect and toxicity in mouse, subcutaneous MV-4-11 transplant.
Procedure: A human hematopoietic organ tumor cell line (MV-4-11) was subcutaneously transplanted in the right chest of each of BALB/cA Jcl-nu/nu mice. After tumor transplantation, the major axes (mm) and minor axes (mm) of the tumors were measured and tumor volumes (TV) were calculated. The mice were assigned to individual groups such that the average TVs of the groups became equal. The day of grouping mice was determined Day 0.
Thereafter, administration was continued as long as a weight loss was acceptable and then evaluated.
The tumor volumes (TV) and body weights (BW) of individual groups were evaluated. As the indexes of antitumor effect and toxicity, the relative tumor volume (RTV) to that of Day 0 and a body weight change (BWC) relative to that of Day 0 were obtained, respectively, in accordance with the following equations and plotted on a chart.
BWC (%)=(BW on evaluation date−BW on Day 0)/(BW on Day 0)×100
T/C (%)=(Number of blood cell component in administration group/Number of blood cell component in control group)×100
The next series concerns H1650. The series is described as follows: Test Example 4 growth suppression activity, CellTiter-Glo. To be noted: NCI-H1650, 72 h; H1650, Human lung cancer, 3 days. It counts as cell-based. How it is done: (§1) Human tumor cell lines different in type were suspended in mediums, seeded in individual wells of a multi-well plate and cultured. On the day after initiation of culture, serially diluted solutions of a compound were added. Culture was carried out for further 3 days. Cells were counted by a CellTiter-Glo (manufactured by Promega KK) in accordance with the protocol recommended by Promega KK. Cell viability was calculated in accordance with the equation shown below and the concentration (IC50 (nM)) of the compound at which 50% of cell growth is inhibited was obtained.
(§2) Cell viability (%)=(T/C)×100
(§3) T: Intensity of light emitted from a well containing a compound
(§4) C: Intensity of light emitted from a well containing no compound

The next series deals with A549. The series is described as above. It counts as cell-based. Conditions: 72 h; A549, Human lung cancer, 3 days. How it is done: as §1, §2, §3, §4
The test system of another series is H2122. Described as above. Format: cell-based. To be noted: NCI-H2122, 72 h; H2122, Human lung cancer, 3 days. How it is done:
as §1, §2, §3, §4

The subject of a further series is H358. The description is as above. Format: cell-based. To be noted: NCI-H358, 72 h; H358, Human lung cancer, 3 days. How it is done: as §1, §2, §3, §4
A further series relates to DU145. The series is described as follows: Test Example 3 growth suppression activity, CellTiter-Glo. Format: cell-based. Conditions: DU-145, 72 h; DU145, Human prostate cancer, 3 days. How it is done: Human tumor cell lines different in type were suspended in mediums, seeded in individual wells of a multi-well plate and cultured. On the day after initiation of culture, serially diluted solutions of a compound were added. Culture was carried out for further 3 days. Cells were counted by a CellTiter-Glo (manufactured by Promega KK) in accordance with the protocol recommended by Promega KK. Cell viability was calculated in accordance with the equation shown below and the concentration (IC50 (μM)) of the compound at which 50% of cell growth is inhibited was obtained.
as §2, §3, §4
On the technique in general: Cellular ATP, detected with luciferase, serves as a proxy for viable cell number.

Setting [5] is: iv, 12 mg/kg, read-out: AUC 0-6 hr in terms of the administered Example compound.

Each structure is given as a SMILES string. Structures can show the parent of a compound that is named as a salt.

On to `Nc1ncnc2c1c(Br)cn2[C@@H]1O[C@H](COP(=O)(O)O)[C@@H](O)[C@@H]1F` [Example 1, ((2R,3R,4S,5R)-5-(4-amino-5-bromo-7H-pyrrolo[2,3-d]pyrimidin-7-yl)-4-fluoro-3-hydroxytetrahydrofuran-2-yl)methyl dihydrogen phosphate], for which the “presence of prodrug in mouse (conversion into active compound)” value (from here on “presence of prodrug in mouse”) in series [1] and in [2] was “prodrug of the compound (Br form) of Comparative Example 1” each time.
Turning to `Nc1ncnc2c1c(I)cn2[C@@H]1O[C@H](COP(=O)(O)O)[C@@H](O)[C@@H]1F` [Disodium salt of Example 2, ((2R,3R,4S,5R)-5-(4-amino-5-iodo-7H-pyrrolo[2,3-d]pyrimidin-7-yl)-4-fluoro-3-hydroxytetrahydrofuran-2-yl)methyl dihydrogen phosphate], the AUC(0-t) in series [2] (setting [5]) amounted to 0.64 µM·h.
Turning to `Nc1ncnc2c1c(I)cn2[C@@H]1O[C@H](CO)C(OP(=O)(O)O)C1F` (stereo partly drawn) [Disodium salt of Example 4, (2R,3R,4S,5R)-5-(4-amino-5-iodo-7H-pyrrolo[2,3-d]pyrimidin-7-yl)-4-fluoro-2-(hydroxymethyl) tetrahydrofuran-3-yl dihydrogen phosphate], the AUC(0-t) in series [2] (setting [5]) is 9.35 µM·h.
Consider `Nc1ncnc2c1c(I)cn2[C@@H]1O[C@H](COP(=O)(O)O)[C@@H](O)[C@@H]1F` [Example 2, ((2R,3R,4S,5R)-5-(4-amino-5-iodo-7H-pyrrolo[2,3-d]pyrimidin-7-yl)-4-fluoro-3-hydroxytetrahydrofuran-2-yl)methyl dihydrogen phosphate], for which the “continuation of administration compared to Comparative Example 2-compound administration group” value is “continued longer” in series [3] (administration continued until weight loss 20% or more, Day 13 vs Day 6) and “continued longer” in [4] (Day 15 vs Day 11 (Comparative Example 2 oral 12 mg/kg/day)). Also, the “effect on body weight (BWC)” value is “mild” in series [3] (oral 14.4 mg/kg/day every day) and “low” in series [4] (osmotic pump 20 mg/kg/day for 14 days). In addition, the “antitumor effect (IR based on RTV)” value in [3] (oral 14.4 mg/kg/day every day, final day of evaluation Day 13, compared with Comparative Example 2 12 mg/kg/day, Day 6) was “high antitumor effect”. Moreover, the “presence of prodrug in mouse” value in series [1] is recorded as “prodrug of the compound (I form) of Comparative Example 2”. Besides, the “hematological toxicity (lymphocytes, monocytes T/C)” value in series [4] (osmotic pump 20 mg/kg/day for 14 days, Day 15) was “low”. Besides, in [4] (osmotic pump 20 mg/kg/day for 14 days, final day Day 15), the “antitumor effect (RTV)” value was “remarkable antitumor effect (tumor regression was confirmed)”.
Consider `Nc1ncnc2c1c(Cl)cn2[C@@H]1O[C@H](COP(=O)(O)O)[C@@H](O)[C@@H]1F` [Example 5, ((2R,3R,4S,5R)-5-(4-amino-5-chloro-7H-pyrrolo[2,3-d]pyrimidin-7-yl)-4-fluoro-3-hydroxytetrahydrofuran-2-yl)methyl dihydrogen phosphate], for which the “presence of prodrug in mouse” value in series [1] is “prodrug of the compound (Cl form) of Comparative Example 3”; in [2], “prodrug of the compound (Cl form) of Comparative Example”.
With `Nc1ncnc2c1c(Cl)cn2[C@@H]1O[C@H](COP(=O)(O)O)[C@@H](O)[C@@H]1F` [Disodium salt of Example 5, ((2R,3R,4S,5R)-5-(4-amino-5-chloro-7H-pyrrolo[2,3-d]pyrimidin-7-yl)-4-fluoro-3-hydroxytetrahydrofuran-2-yl)methyl dihydrogen phosphate], the AUC(0-t) in series [2] (intravenous, 11 mg/kg, read-out: AUC 0-6 hr in terms of Example 5) was determined as 0.08 µM·h.
For the compound `Nc1ncnc2c1c(I)cn2[C@@H]1O[C@H](COP(O)(O)=S)[C@@H](O)[C@@H]1F` [Disodium salt of Example 3, O-(((2R,3R,4S,5R)-5-(4-amino-5-iodo-7H-pyrrolo[2,3-d]pyrimidin-7-yl)-4-fluoro-3-hydroxytetrahydrofuran-2-yl)methyl) O,O-dihydrogen phosphorothioate], the AUC(0-t) in [2] (setting [5]) amounted to 0.18 µM·h.
Take `Nc1ncnc2c1c(Br)cn2[C@@H]1O[C@H](CO)[C@@H](O)[C@@H]1F` [Comparative Example 1, (2R,3R,4S,5R)-5-(4-amino-5-bromo-7H-pyrrolo[2,3-d]pyrimidin-7-yl)-4-fluoro-2-(hydroxymethyl) tetrahydrofuran-3-ol]: the AUC(0-t) in [1] (male, Balb/cA, oral, 50 mg/kg (0.14 mmol/kg), 0.5% HPMC, mouse plasma, administered compound, read-out: AUC 0-6 hr) amounted to 20.2 µM·h. The IC50 with H1650 came out at 11 nM; in the series with A549, 24 nM; in the series on H2122, 17 nM; in the series with H358, 69 nM; with DU145, 90 nM.
With `Nc1ncnc2c1c(Br)cn2[C@@H]1O[C@H](COP(=O)(O)O)[C@@H](O)[C@@H]1F` [Disodium salt of Example 1, ((2R,3R,4S,5R)-5-(4-amino-5-bromo-7H-pyrrolo[2,3-d]pyrimidin-7-yl)-4-fluoro-3-hydroxytetrahydrofuran-2-yl)methyl dihydrogen phosphate], the AUC(0-t) in series [2] (iv, 26 mg/kg, read-out: AUC 0-6 hr in terms of Example 1) was 0.15 µM·h.

Broadly, the IC50 is the concentration needed to halve the response being measured.

These data come from patent US20220267365A1, “NOVEL PHOSPHATE ESTER COMPOUND HAVING PYRROLOPYRIMIDINE SKELETON OR PHARMACEUTICALLY ACCEPTABLE SALT THEREOF” (TAIHO PHARMACEUTICAL CO., LTD., priority 2019, published 2022).
